Reference: paper PMC8434109, “Synthesis and Biological Activity of a Cytostatic Inhibitor of MLLr Leukemia Targeting the DOT1L Protein” (Molecules, 2021)

Assays:
MV4-11 cells = assay: Flow cytometry cell cycle analysis (propidium iodide); type: cell-based, human; conditions: for percentage of cells in the G0/G1 phase / percentage of cells in the S phase: MV4-11, 3.2 µM
Protocol: A decrease in the S phase of the cell cycle was also observed from 24% (day 8) to 20% (day 10), 13% (day 12).
In a 12-well plate, 2 mL exponentially growing MV4-11 cells were plated with a density of 2 × 10^5 cells/mL. […] Culture media and drugs were replaced every 2–3 days and cells were split back to a density of 2 × 10^5 cells/mL at the same time. Cells were harvested on days 8, 10, 12 and split to allow the analysis of cell cycle and Annexin V staining simultaneously. The apoptosis ratio was detected by an Annexin V-APC/7-AAD double staining assay (SONY 3804610) and cells were prepared according to the manufacturer’s recommendations. Cells for the cell cycle analysis were collected by centrifugation at 500× g for 5 min at 4 °C. The pellets were washed once with cold PBS and then fixed with 70% ethanol on ice for 30 min. Afterwards, the cells were washed once with cold PBS and stained with propidium iodide (Invitrogen P3566) for 30 min at 37 °C. Samples were measured using an Attune NxT acoustic focusing cytometer (Life Technologies), data were analyzed by FlowJo.

EZH2 Complex = target: T1, EZH2 Complex (Homo sapiens, UniProt Q15910); assay: HMT selectivity panel (Reaction Biology); type: biochemical; conditions: substrate Core Histone, read-out: Enzyme % Activity (relative to DMSO controls)
T1 construct: purchased Reaction Biology
T1 sequence (Q15910 2-746 limits assumed): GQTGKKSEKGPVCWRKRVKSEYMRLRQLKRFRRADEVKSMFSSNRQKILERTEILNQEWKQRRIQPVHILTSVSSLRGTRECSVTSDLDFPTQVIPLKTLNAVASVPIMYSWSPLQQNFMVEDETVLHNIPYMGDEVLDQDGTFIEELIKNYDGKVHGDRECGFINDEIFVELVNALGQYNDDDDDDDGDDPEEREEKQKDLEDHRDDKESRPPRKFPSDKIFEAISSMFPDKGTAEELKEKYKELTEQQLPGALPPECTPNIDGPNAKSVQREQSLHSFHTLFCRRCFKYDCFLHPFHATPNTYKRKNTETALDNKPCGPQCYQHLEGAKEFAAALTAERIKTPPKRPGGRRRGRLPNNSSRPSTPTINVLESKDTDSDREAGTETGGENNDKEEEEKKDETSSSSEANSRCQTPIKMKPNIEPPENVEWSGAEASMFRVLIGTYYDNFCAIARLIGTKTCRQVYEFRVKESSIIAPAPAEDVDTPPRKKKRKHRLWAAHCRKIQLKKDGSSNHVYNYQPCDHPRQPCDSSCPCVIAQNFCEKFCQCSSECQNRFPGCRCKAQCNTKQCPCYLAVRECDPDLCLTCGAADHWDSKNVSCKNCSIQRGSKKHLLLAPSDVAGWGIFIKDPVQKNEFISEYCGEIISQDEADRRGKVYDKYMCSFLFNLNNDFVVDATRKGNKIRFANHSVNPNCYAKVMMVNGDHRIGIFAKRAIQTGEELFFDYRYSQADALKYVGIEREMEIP
T1 sequence (O75530 2-441 partner limits assumed): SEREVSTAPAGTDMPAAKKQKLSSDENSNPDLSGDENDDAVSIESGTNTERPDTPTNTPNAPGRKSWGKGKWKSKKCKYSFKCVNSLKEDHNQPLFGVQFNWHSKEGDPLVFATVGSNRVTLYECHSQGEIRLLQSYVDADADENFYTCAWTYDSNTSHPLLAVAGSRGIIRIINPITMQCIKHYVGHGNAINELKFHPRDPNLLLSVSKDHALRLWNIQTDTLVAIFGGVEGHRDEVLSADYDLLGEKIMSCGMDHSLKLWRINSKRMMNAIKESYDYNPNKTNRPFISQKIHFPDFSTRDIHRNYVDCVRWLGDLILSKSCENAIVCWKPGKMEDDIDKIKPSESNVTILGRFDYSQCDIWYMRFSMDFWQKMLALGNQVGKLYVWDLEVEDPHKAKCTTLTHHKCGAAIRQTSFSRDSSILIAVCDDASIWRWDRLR
T1 sequence (Q15022 2-739 partner limits assumed): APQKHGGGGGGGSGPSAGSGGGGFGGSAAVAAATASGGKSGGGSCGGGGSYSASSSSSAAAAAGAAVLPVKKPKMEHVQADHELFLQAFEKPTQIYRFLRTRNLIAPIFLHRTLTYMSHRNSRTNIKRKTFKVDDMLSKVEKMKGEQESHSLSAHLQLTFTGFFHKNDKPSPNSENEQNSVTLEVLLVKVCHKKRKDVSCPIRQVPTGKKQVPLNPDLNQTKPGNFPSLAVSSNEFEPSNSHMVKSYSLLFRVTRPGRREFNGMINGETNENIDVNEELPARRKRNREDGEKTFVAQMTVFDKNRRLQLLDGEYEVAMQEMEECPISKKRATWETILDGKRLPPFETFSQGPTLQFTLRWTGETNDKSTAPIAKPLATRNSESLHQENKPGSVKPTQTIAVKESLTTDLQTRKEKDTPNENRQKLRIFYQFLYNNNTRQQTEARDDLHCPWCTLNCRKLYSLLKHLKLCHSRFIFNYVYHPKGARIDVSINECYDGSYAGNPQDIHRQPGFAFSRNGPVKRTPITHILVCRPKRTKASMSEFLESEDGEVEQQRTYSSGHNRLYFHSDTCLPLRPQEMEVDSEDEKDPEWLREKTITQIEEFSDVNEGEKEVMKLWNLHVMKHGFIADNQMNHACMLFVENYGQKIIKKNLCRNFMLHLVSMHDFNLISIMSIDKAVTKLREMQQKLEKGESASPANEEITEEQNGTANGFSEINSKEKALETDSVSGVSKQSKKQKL
T1 sequence (Q09028 2-425 partner limits assumed): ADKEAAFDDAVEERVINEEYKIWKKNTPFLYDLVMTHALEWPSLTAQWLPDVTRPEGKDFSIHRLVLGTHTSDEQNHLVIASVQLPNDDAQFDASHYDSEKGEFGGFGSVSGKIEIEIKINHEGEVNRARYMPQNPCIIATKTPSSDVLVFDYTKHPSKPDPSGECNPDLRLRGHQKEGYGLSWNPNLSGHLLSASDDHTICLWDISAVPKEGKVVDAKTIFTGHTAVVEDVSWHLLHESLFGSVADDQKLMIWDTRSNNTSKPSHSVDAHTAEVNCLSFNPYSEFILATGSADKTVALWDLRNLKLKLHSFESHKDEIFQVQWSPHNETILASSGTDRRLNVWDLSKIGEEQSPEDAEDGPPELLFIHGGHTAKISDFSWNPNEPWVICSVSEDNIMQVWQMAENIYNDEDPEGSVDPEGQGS
T1 sequence (Q6ZN18 whole entry partner): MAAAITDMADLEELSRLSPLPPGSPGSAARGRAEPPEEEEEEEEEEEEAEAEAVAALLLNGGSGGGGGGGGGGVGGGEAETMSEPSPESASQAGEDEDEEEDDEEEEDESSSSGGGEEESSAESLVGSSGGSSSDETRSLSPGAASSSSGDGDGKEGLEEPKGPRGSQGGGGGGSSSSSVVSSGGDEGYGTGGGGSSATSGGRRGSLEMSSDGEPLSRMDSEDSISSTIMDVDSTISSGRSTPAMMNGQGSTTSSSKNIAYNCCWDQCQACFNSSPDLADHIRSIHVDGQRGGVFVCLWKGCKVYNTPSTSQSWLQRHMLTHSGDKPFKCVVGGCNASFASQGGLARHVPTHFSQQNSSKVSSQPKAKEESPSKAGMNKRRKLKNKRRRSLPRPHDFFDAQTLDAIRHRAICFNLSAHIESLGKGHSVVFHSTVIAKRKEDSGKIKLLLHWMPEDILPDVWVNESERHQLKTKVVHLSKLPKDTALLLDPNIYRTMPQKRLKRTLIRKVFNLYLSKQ
Protocol: (§1) Table S1: Selectivity of the compound on a HMT panel (by Reaction Biology, USA) and on hDNMT3Acat (as described in Ceccaldi
(§2) Enzyme % Activity (relative to DMSO
(§3) Testing Concentration 10µM
(§4) Methyltransferase: Substrate: Activity enzyme in %

G9a = target: T2, G9a (Homo sapiens, UniProt Q96KQ7); assay: HMT selectivity panel (Reaction Biology); type: biochemical; conditions: substrate Histone H3 1-21, read-out: Enzyme % Activity (relative to DMSO controls)
T2 construct: purchased Reaction Biology
T2 sequence (Q96KQ7 1-1210): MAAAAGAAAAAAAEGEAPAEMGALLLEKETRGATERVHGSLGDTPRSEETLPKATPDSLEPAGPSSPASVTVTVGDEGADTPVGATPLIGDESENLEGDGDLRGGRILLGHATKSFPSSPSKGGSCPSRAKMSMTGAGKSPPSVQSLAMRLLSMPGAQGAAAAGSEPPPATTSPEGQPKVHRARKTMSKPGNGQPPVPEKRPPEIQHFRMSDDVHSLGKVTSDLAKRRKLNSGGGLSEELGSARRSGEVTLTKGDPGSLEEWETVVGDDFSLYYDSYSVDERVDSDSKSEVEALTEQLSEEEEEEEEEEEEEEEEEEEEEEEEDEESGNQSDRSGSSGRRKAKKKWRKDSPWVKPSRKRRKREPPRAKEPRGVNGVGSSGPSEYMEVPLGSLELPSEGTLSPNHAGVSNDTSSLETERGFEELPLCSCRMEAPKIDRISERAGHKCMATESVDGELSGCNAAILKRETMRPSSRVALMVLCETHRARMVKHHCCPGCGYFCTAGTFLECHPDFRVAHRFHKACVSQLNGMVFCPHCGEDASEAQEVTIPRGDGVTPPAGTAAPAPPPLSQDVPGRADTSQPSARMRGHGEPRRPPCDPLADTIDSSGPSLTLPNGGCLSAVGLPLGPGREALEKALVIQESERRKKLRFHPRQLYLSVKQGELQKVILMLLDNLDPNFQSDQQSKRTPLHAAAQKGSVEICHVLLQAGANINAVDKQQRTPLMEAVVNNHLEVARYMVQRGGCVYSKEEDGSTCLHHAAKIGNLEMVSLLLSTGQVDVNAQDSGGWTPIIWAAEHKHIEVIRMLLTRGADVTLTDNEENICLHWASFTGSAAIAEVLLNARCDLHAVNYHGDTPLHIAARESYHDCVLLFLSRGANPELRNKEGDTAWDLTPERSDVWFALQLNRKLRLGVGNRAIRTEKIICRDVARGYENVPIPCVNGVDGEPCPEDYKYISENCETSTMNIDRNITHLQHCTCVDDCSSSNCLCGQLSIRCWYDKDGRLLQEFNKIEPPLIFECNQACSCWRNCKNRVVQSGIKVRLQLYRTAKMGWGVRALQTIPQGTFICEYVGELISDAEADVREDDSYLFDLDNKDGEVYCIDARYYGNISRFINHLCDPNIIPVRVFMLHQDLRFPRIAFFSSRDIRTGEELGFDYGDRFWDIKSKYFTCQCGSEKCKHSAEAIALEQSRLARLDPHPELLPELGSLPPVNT
Protocol: as §1, §2, §3, §4

PRMT4 = target: T3, PRMT4 (Homo sapiens, UniProt Q86X55); assay: HMT selectivity panel (Reaction Biology); type: biochemical; conditions: substrate Histone H3, read-out: Enzyme % Activity (relative to DMSO controls)
T3 construct: purchased Reaction Biology
T3 sequence (Q86X55 1-608): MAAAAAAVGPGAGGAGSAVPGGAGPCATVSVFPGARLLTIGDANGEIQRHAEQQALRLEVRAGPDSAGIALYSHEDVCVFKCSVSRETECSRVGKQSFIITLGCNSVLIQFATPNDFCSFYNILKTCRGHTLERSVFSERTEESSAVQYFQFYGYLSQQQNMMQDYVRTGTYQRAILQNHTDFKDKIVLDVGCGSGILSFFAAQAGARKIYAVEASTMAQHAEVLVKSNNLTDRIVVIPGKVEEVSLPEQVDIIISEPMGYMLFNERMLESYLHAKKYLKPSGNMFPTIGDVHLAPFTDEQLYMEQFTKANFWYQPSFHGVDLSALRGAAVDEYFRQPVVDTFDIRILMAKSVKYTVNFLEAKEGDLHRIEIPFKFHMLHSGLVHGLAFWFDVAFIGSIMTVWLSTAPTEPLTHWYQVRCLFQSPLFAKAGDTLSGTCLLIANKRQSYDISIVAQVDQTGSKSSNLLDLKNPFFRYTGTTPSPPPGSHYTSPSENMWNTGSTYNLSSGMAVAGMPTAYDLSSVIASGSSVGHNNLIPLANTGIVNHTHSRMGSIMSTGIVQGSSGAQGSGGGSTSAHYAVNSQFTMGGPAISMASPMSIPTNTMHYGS
Protocol: as §1, §2, §3, §4

PRMT6 = target: T4, PRMT6 (Homo sapiens, UniProt Q96LA8); assay: HMT selectivity panel (Reaction Biology); type: biochemical; conditions: substrate GST-GAR, read-out: Enzyme % Activity (relative to DMSO controls)
T4 construct: purchased Reaction Biology
T4 sequence (Q96LA8 whole entry): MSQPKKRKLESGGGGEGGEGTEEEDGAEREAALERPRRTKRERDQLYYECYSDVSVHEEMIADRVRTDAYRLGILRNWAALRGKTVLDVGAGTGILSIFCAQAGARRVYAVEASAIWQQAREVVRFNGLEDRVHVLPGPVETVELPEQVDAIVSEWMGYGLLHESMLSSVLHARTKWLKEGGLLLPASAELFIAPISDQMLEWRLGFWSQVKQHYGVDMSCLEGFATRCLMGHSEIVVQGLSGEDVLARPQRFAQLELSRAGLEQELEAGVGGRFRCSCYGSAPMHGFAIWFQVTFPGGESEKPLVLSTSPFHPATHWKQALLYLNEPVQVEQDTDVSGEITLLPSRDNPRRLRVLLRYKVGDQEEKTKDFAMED
Protocol: as §1, §2, §3, §4

SMYD2 = target: T5, SMYD2 (Homo sapiens, UniProt Q9NRG4); assay: HMT selectivity panel (Reaction Biology); type: biochemical; conditions: substrate Histone H4, read-out: Enzyme % Activity (relative to DMSO controls)
T5 construct: purchased Reaction Biology
T5 sequence (Q9NRG4 whole entry): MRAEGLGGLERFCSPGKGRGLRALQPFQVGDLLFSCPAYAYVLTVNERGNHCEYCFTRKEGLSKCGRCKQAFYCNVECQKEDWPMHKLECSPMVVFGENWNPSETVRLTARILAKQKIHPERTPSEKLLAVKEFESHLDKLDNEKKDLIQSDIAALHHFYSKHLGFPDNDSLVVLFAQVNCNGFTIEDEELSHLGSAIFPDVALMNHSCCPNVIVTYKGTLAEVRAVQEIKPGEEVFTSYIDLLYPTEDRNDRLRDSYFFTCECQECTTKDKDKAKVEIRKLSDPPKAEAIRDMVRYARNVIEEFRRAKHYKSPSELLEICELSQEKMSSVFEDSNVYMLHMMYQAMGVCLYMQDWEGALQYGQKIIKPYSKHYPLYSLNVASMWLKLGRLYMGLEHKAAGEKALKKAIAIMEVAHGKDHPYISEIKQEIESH
Protocol: as §1, §2, §3, §4

remaining activity at 10 µM (EZH2 Complex): 86 ± 1% | remaining activity at 10 µM (G9a): 97 ± 1% | remaining activity at 10 µM (PRMT4): 92 ± 1% | remaining activity at 10 µM (PRMT6): 95 ± 1% | remaining activity at 10 µM (SMYD2): 92 ± 1%
SMILES: CC(C)[C@H](CCCNC(=O)Nc1ccc(C(C)(C)C)cc1)N[C@H]1C[C@@H](n2cnc3c(N)ncnc32)[C@H](O)[C@@H]1O [Dia2, 1-((S)-4-(((1S,2R,3S,4R)-4-(6-amino-9H-purin-9-yl)-2,3-dihydroxycyclopentyl)amino)-5-methylhexyl)-3-(4-(tert-butyl)phenyl)urea]
effect on the cell cycle (MV4-11 cells; MV4-11, 1 µM): does not affect the cell cycle | percentage of cells in the G0/G1 phase (MV4-11 cells; day 8): 53% | percentage of cells in the S phase (MV4-11 cells; day 8): 24% | percentage of cells in the G0/G1 phase (MV4-11 cells; day 10): 41% | percentage of cells in the S phase (MV4-11 cells; day 10): 20% | percentage of cells in the G0/G1 phase (MV4-11 cells; day 12): 24% | percentage of cells in the S phase (MV4-11 cells; day 12): 13%
